From article PMC5464773 (eLife, 2017)
Peptide text beside a SMILES is read from it. * marks the point of attachment. Acryloyl = C=CC(=O)*

Columns and labels:
Assay in all cases: BH3 profiling, mitochondrial depolarization (JC-1) in permeabilized cells
Type in all cases: cell-based
[1] = tested on: BCR-ABL-expressing B-lineage acute lymphoblastic leukemia cells dependent on Bfl-1; design: key to Bottom (best-fit value) / Top (best-fit value): % depolarization, normalized to DMSO (0) and FCCP (100) controls; conditions: BH3 profiling fits Bfl-1, sigmoidal dose-response (variable slope)
Experimental: (§1) Cell line identities were confirmed by STR profiling.
(§2) Peptides were titrated by serial dilution in MEB buffer (150 mM Mannitol, 10 mM HEPES-KOH pH 7.5, 50 mM KCl, 0.02 mM EGTA, 0.02 mM EDTA, 0.1% BSA and 5 mM Succinate) containing 20 μg/mL oligomycin, 50 μg/mL digitonin, 2 μM JC-1 and 10 mM 2-mercaptoethanol in 384-well plates. Controls for no depolarization (1% DMSO) and complete depolarization with the mitochondrial oxidative phosphorylation uncoupler FCCP (20 μM) were included for data normalization. […] 15 μL of cell suspension was added to each well containing 15 μL of treatment solution. […] To produce percent depolarization, the area under the resultant curve was calculated and normalized to the assay controls. Peptide titration curves were fit to sigmoidal dose-response curves using Graphpad PRISM seven to obtain EC50 values.

[2] = tested on: BCR-ABL-expressing B-lineage acute lymphoblastic leukemia cells dependent on Bcl-xL; conditions: BH3 profiling fits Bcl-xL, sigmoidal dose-response (variable slope), fit ambiguous
Experimental: as §1, §2

[3] = tested on: BCR-ABL-expressing B-lineage acute lymphoblastic leukemia cells dependent on Mcl-1; conditions: BH3 profiling fits Mcl-1, sigmoidal dose-response (variable slope)
Experimental: as §1, §2

C=CC(=O)N[C@@H](Cc1c[nH]c2ccccc12)C(=O)N[C@H](C(=O)N[C@@H](CCCNC(=N)N)C(=O)N[C@@H](CCC(=O)O)C(=O)N[C@H](C(=O)N[C@@H](C)C(=O)N[C@@H](C)C(=O)NCC(=O)N[C@@H](CC(C)C)C(=O)N[C@@H](CCCNC(=N)N)C(=O)N[C@@H](CCCNC(=N)N)C(=O)N[C@@H](C)C(=O)N[C@@H](C)C(=O)N[C@@H](CC(=O)O)C(=O)N[C@@H](CC(=O)O)C(=O)N[C@H](C(=O)N[C@@H](CC(N)=O)C(=O)N[C@@H](C)C(=O)N[C@@H](CCC(N)=O)C(=O)N[C@H](C(=O)N[C@@H](CCC(=O)O)C(=O)N[C@@H](CCCNC(=N)N)C(N)=O)C(C)C)C(C)C)[C@@H](C)CC)C(C)C [FS2gX] (Acryloyl-WVREIAAGLRRAADDVNAQVER-NH2)
HillSlope (best-fit value) [1]: 0.7987
Bottom (best-fit value) ([1]; constraint Bottom < 5): -3.828
Top (best-fit value) ([1]; constraint Top > 78): 78.27
LogEC50 (best-fit value) ([1]; x = Log [Peptide] M, 55-56 Y values analyzed): -8.01
Bottom (best-fit value) ([2]; constraint Bottom < 5): ~ -1647
Top (best-fit value) ([2]; constraint Top > 78): ~ 78
HillSlope (best-fit value) [2]: ~ -0.02698
HillSlope (best-fit value) [3]: 0.1762
Bottom (best-fit value) ([3]; constrained (0 < Bottom < 5 or Bottom < 5)): -6.58
Top (best-fit value) ([3]; constrained (Top < 100 or Top > 78)): ~ 78
